Experimental data reported in patent US20060247261A1 (priority 2002, published 2006).
Read-outs that look alike come from different tables or passages of the source.

Target: T1, human cannabinoid CB2 receptor (Homo sapiens, UniProt P34972)
T1 construct: expressed in transfected cells; host or cells: Saccharomyces cerevisiae strain MMY23 (expresses a chimeric Gpa1/human Galpha-i3 G-protein alpha subunit)
Experiment: Cannabinoid CB2 receptor agonist activity, yeast reporter assay
Type: cell-based
Settings: for Emax: read-out: efficacy (Emax) at the cloned human cannabinoid CB2 receptor
Source text: Yeast (Saccharomyces cerevisiae) cells expressing the human cannabinoid CB2 receptor were generated by integration of an expression cassette into the ura3 chromosomal locus of yeast strain MMY23. This cassette consisted of DNA sequence encoding the human CB2 receptor flanked by the yeast GPD promoter to the 5′ end of CB2 and a yeast transcriptional terminator sequence to the 3′ end of CB2. MMY23 expresses a yeast/mammalian chimeric G-protein alpha subunit in which the C-terminal 5 amino acids of Gpa1 are replaced with the C-terminal 5 amino acids of human Gαi3 (as described in Brown et al. (2000), Yeast 16:11-22).
Agonists were prepared as 10 mM stocks in DMSO. […] Agonist solutions in DMSO (1% final assay volume) were transferred into black, clear bottom, microtitre plates from NUNC (96- or 384-well). […] Fluorescence was plotted against compound concentration and iteratively curve fitted using a four parameter fit to generate a concentration effect value.

T1 sequence (P34972 whole entry): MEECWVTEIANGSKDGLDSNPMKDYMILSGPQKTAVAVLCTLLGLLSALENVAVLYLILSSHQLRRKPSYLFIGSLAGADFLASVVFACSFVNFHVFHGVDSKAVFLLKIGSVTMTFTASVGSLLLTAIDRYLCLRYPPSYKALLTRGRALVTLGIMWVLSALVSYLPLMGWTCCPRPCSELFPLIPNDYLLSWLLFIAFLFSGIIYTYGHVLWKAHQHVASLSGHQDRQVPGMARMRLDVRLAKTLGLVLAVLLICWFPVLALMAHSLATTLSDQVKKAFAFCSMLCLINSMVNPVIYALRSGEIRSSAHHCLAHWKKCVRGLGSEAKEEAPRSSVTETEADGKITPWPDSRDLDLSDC

SMILES	activity in the CB2 assay (in words) (CB2 assay described herein)	EC50 [µM]	Emax [%]	EC50 (yeast (Saccharomyces cerevisiae) cells expressing human CB2, read-out: EC50 at the cloned human cannabinoid CB2 receptor) [µM]
COc1ccccc1CNC(=O)c1cnc(Nc2cccc(Cl)c2)nc1C(F)(F)F [2-(3-Chloro-phenylamino)-4-trifluoromethyl-pyrimidine-5-carboxylic acid 2-methoxy-benzylamide]	inactive			
O=C(NCc1ccc(F)cc1Cl)c1cnc(Nc2cccc(Cl)c2)nc1C(F)(F)F [Example 72, 2-(3-Chloro-phenylamino)-4-trifluoromethyl-pyrimidine-5-carboxylic acid N-(2-chloro-4-fluoro-benzyl)amide]		> 1	< 50	
N#Cc1ccc(Nc2ncc(C(=O)NCc3ccc(F)cc3)c(C(F)(F)F)n2)cc1Cl [Example 86, 2-(3-Chloro-4-cyano-phenylamino)-4-trifluoromethyl-pyrimidine-5-carboxylic acid 4-fluoro-benzylamide]		0.02 to 1	> 50	
Cc1ccc(CNC(=O)c2cnc(Nc3cccc(Cl)c3)nc2C(F)(F)F)cc1 [Example 78, 2-(3-Chloro-phenylamino)-4-trifluoromethyl-pyrimidine-5-carboxylic acid N-(4-methyl-benzyl)amide]		> 1	< 50	
O=C(NCc1cccc(Cl)c1)c1cnc(Nc2cccc(Cl)c2)nc1C(F)(F)F [Example 52, 2-(3-Chloro-phenylamino)-4-trifluoromethyl-pyrimidine-5-carboxylic acid N-(3-chlorobenzyl)amide]		> 1	< 50	
O=C(NCc1ccc(F)cc1)c1cnc(Nc2cccc(Br)c2)nc1C(F)(F)F [Example 24]				0.02 to 1
O=C(NCc1ccc(F)cc1C(F)(F)F)c1cnc(Nc2cccc(Cl)c2)nc1C(F)(F)F [Example 74, 2-(3-Chloro-phenylamino)-4-trifluoromethyl-pyrimidine-5-carboxylic acid N-(4-fluoro-2-trifluoromethyl-benzyl)amide]		> 1	< 50	
O=C(NCc1ccc(F)c(F)c1)c1cnc(Nc2cccc(Cl)c2)nc1C(F)(F)F [Example 81, 2-(3-Chloro-phenylamino)-4-trifluoromethyl-pyrimidine-5-carboxylic acid 3,4-difluoro-benzylamide]		0.02 to 1	> 50	
CN(Cc1ccc(F)cc1)C(=O)c1cnc(Nc2cccc(Cl)c2)nc1C(F)(F)F [Example 110, 2-(3-Chloro-phenylamino)-4-trifluoromethyl-pyrimidine-5-carboxylic acid (4-fluoro-benzyl)-methyl-amide]		> 1	< 50	
C[C@@H](NC(=O)c1cnc(Nc2cccc(Cl)c2)nc1C(F)(F)F)c1ccccc1 [Example 108, 2-(3-Chloro-phenylamino)-4-trifluoromethyl-pyrimidine-5-carboxylic acid ((R)-1-phenyl-ethyl)-amide]		> 1	< 50	
O=C(NCc1ccncc1)c1cnc(Nc2cccc(F)c2)nc1C(F)(F)F [Example 20, 2-(3-Fluorophenylamino)-4-trifluoromethylpyrimidine-5-carboxylic acid (pyridin-4-ylmethyl)amide]		0.02 to 1	> 50	
O=C(NCc1ccnc(F)c1)c1cnc(Nc2cc(Cl)ccc2Cl)nc1C(F)(F)F [Example 90, 2-(2,5-Dichloro-phenylamino)-4-trifluoromethyl-pyrimidine-5-carboxylic acid (2-fluoro-pyridin-4-ylmethyl)-amide]		0.02 to 1	> 50	
O=C(NCc1ccncc1)c1cnc(Nc2cc(Cl)ccc2Cl)nc1C(F)(F)F [Example 19, 2-(2,5-Dichlorophenylamino)trifluoromethylpyrimidine-5-carboxylic acid (pyridin-4-ylmethyl)amide]		0.02 to 1	> 50	
N#Cc1ccc(CNC(=O)c2cnc(Nc3c(Cl)cccc3Cl)nc2C(F)(F)F)cc1 [Example 71, 2-(2,6-Dichloro-phenylamino)-4-trifluoroniethyl-pyrimidine-5-carboxylic acid N-(4-cyano-benzyl)amide]		> 1	< 50	
O=C(NCc1ccc(F)cc1)c1cnc(Nc2cc(F)cc(F)c2)nc1C(F)(F)F [Example 85, 2-(3,5-Difluoro-phenylamino)-4-trifluoromethyl-pyrimidine-5-carboxylic acid 4-fluoro-benzylamide]		0.02 to 1	> 50	
O=C(NCc1ccc(F)cc1)c1cnc(Nc2cc(C(F)(F)F)cc(C(F)(F)F)c2)nc1C(F)(F)F [Example 114, 2-(3,5-Ditrifluoromethyl-phenylamino)-4-trifluoromethyl-pyrimidine-5-carboxylic acid 4-fluoro-benzylamide]		> 1	< 50	
CN(Cc1ccccc1)C(=O)c1cnc(Nc2cc(Cl)ccc2Cl)nc1C(F)(F)F [Example 58, 2-(2,5-Dichloro-phenylamino)-4-trifluoromethyl-pyrimidine-5-carboxylic acid N-benzyl-N-methyl-amide]		> 1	< 50	

SMILES	activity in the CB2 assay (in words) (CB2 assay described herein)	EC50 [µM]	Emax [%]	EC50 (yeast (Saccharomyces cerevisiae) cells expressing human CB2, read-out: EC50 at the cloned human cannabinoid CB2 receptor) [µM]
N#Cc1ccc(CNC(=O)c2cnc(Nc3ccc(Cl)cc3Cl)nc2C(F)(F)F)cc1 [Example 66, 2-(2,4-Dichloro-phenylamino)-4-trifluoromethyl-pyrimidine-5-carboxylic acid N-(4-cyano-benzyl)amide]		> 1	< 50	
O=C(NCc1ccc(Br)cc1)c1cnc(Nc2cccc(Cl)c2)nc1C(F)(F)F [Example 63, 2-(3-Chloro-phenylamino)-4-trifluoromethyl-pyrimidine-5-carboxylic acid N-(4-bromo-benzyl)amide]		> 1	< 50	
O=C(NCc1ccc(F)cc1)c1cnc(Nc2cccc(F)c2)nc1C(F)(F)F [Example 23, 2-(3-Fluorophenylamino)-4-trifluoromethylpyrimidine-5-carboxylic acid 4-fluorobenzyl-amide]		0.02 to 1	> 50	
O=C(NCc1ccncc1)c1cnc(Nc2c(Cl)cccc2Cl)nc1C(F)(F)F [Example 69, 2-(2,6-Dichloro-phenylamino)-4-trifluorometbyl-pyrimidine-5-carboxylic acid N-(pyridin-4-ylmethyl)-amide]		> 1	< 50	
O=C(NCc1ccncc1)c1cnc(Nc2cccc(Br)c2)nc1C(F)(F)F [Example 21, 2-(3-Bromophenylamino)-4-trifluoromethylpyrimidine-5-carboxylic acid (pyridin-4-ylmethyl)amide]		0.02 to 1	> 50	
N#Cc1ccc(CNC(=O)c2cnc(Nc3cccc(Cl)c3Cl)nc2C(F)(F)F)cc1 [Example 65, 2-(2,3-Dichloro-phenylamino)-4-trifluoromethyl-pyrimidine-5-carboxylic acid N-(4-cyano-benzyl)amide]		> 1	< 50	
O=C(NCc1ccncc1)c1cnc(Nc2ccc(Cl)c(Cl)c2)nc1C(F)(F)F [Example 18]		0.02 to 1	> 50	
O=C(NCc1ccncn1)c1cnc(Nc2cccc(F)c2)nc1C(F)(F)F [Example 76, 2-(3-Fluoro-phenylamino)-4-trifluoromethyl-pyrimidine-5-carboxylic acid N-(pyrimidin-4-ylmethyl)-amide]		> 1	< 50	
O=C(NCc1ccccc1)c1cnc(Nc2ccc(Cl)cc2)nc1C(F)(F)F [Example 44, 2-(4-Chloro-phenylamino)4-trifluoromethyl-pyrimidine-5-carboxylic acid N-benzylamide]		> 1	< 50	
O=C(NCc1ccccn1)c1cnc(Nc2cccc(Cl)c2)nc1C(F)(F)F [Example 59, 2-(3-Chloro-phenylamino)-4-trifluoromethyl-pyrimidine-5-carboxylic acid N-(pyridin-2-ylmethyl)-amide]		> 1	< 50	
O=C(NCc1ccnc(F)c1)c1cnc(Nc2c(Cl)cccc2Cl)nc1C(F)(F)F [Example 93, 2-(2,6-Dichloro-phenylamino)-4-trifluoromethyl-pyrimidine-5-carboxylic acid (2-fluoro-pyridin-4-ylmethyl)-amide]		0.02 to 1	> 50	
O=C(NCc1ccncc1)c1cnc(Nc2cccc(Cl)c2Cl)nc1C(F)(F)F [Example 16]		0.02 to 1	> 50	
COc1ccc(Nc2ncc(C(=O)NCc3ccccc3)c(C(F)(F)F)n2)cc1 [Example 46, 2-(4-Methoxy-phenylamino)-4-trifluoromethyl-pyrimidine-5-carboxylic acid N-benzylamide]		> 1	< 50	
O=C(NCc1ccc(F)cc1)c1cnc(Nc2cccc(Cl)c2F)nc1C(F)(F)F [Example 83, 2-(3-Chloro-2-fluoro-phenylamino)-4-trifluoromethyl-pyrimidine-5-carboxylic acid 4-fluoro-benzylamide]		0.02 to 1	> 50	
O=C(NCc1ccc(F)c(C(F)(F)F)c1)c1cnc(Nc2cccc(Cl)c2)nc1C(F)(F)F [Example 75, 2-(3-Chloro-phenylamino)-4-trifluoromethyl-pyrimidine-5-carboxylic acid N-(4-fluoro-3-trifluoromethyl-benzyl)amide]		> 1	< 50	
N#Cc1ccc(Nc2ncc(C(=O)NCc3ccccc3)c(C(F)(F)F)n2)cc1 [Example 27, 2-(4-Cyano-phenylamino)-4-trifluoromethyl-pyrimidine-5-carboxylic acid benzylamide]		0.02 to 1	> 50	
